Test system: LG0567-F671-PDC complex spheroids viability
Assay: Anticancer human tumor LG0567-F671-PDC patient-derived lung adenocarcinoma cell line growth inhibition [RAS]
Settings: for IC50: curve of first compound; for viability, T/C: stronger effect = lower value
Summary of the method: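 Agents were tested in combination matrices in half-log decrements from a top concentration at or near clinical Cmax (10 microM if undetermined). Targets were multi-cell spheroids of tumour lines plus HUVEC and MSC stromal cells.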
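Also: spheroids exposed to compound for seven days before readout.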
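For IC50 in this document: luminescence signal used as a proxy for viable cells.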

CCc1c2c(nc3ccc(O)cc13)-c1cc3c(c(=O)n1C2)COC(=O)[C@]3(O)CC + CCn1c(-c2cccnc2C(C)OC)c2c3cc(ccc31)N1CCOC(CC(NC(=O)C(C(C)C)N(C)C(=O)C3(F)CCN(C(=O)C#CC(C)(C)N(C)C)CC3)C(=O)N3CCCC(N3)C(=O)OCC(C)(C)C2)C1
IC50 (second compound 0.000949 µM): < 0.949 nM | IC50 (second compound 0.003 µM): < 0.949 nM | IC50 (second compound 0.00949 µM): < 0.949 nM | IC50 (second compound 0.03 µM): < 0.949 nM | IC50 (second compound 0.0949 µM): < 0.949 nM | IC50 (second compound 0.3 µM): < 0.949 nM | viability, T/C (second compound 0.000949 µM, first compound 0.000949 µM): 13.8% | viability, T/C (second compound 0.000949 µM, first compound 0.003 µM): 13.3% | viability, T/C (second compound 0.000949 µM, first compound 0.00949 µM): 11.2% | viability, T/C (second compound 0.000949 µM, first compound 0.03 µM): 9.37% | viability, T/C (second compound 0.000949 µM, first compound 0.0949 µM): 6.34% | viability, T/C (second compound 0.000949 µM, first compound 0.3 µM): 3.92% | viability, T/C (second compound 0.003 µM, first compound 0.000949 µM): 15.5% | viability, T/C (second compound 0.003 µM, first compound 0.003 µM): 13.3% | viability, T/C (second compound 0.003 µM, first compound 0.00949 µM): 11.8% | viability, T/C (second compound 0.003 µM, first compound 0.03 µM): 9.3% | viability, T/C (second compound 0.003 µM, first compound 0.0949 µM): 6.04% | viability, T/C (second compound 0.003 µM, first compound 0.3 µM): 3.42% | viability, T/C (second compound 0.00949 µM, first compound 0.000949 µM): 13.6% | viability, T/C (second compound 0.00949 µM, first compound 0.003 µM): 14.2% | viability, T/C (second compound 0.00949 µM, first compound 0.00949 µM): 11.6% | viability, T/C (second compound 0.00949 µM, first compound 0.03 µM): 9.12% | viability, T/C (second compound 0.00949 µM, first compound 0.0949 µM): 6.47% | viability, T/C (second compound 0.00949 µM, first compound 0.3 µM): 3.47% | viability, T/C (second compound 0.03 µM, first compound 0.000949 µM): 12.1% | viability, T/C (second compound 0.03 µM, first compound 0.003 µM): 11.9% | viability, T/C (second compound 0.03 µM, first compound 0.00949 µM): 11.2% | viability, T/C (second compound 0.03 µM, first compound 0.03 µM): 7.2% | viability, T/C (second compound 0.03 µM, first compound 0.0949 µM): 4.9% | viability, T/C (second compound 0.03 µM, first compound 0.3 µM): 2.69% | viability, T/C (second compound 0.0949 µM, first compound 0.000949 µM): 12.8% | viability, T/C (second compound 0.0949 µM, first compound 0.003 µM): 9.98% | viability, T/C (second compound 0.0949 µM, first compound 0.00949 µM): 10.1% | viability, T/C (second compound 0.0949 µM, first compound 0.03 µM): 6.64% | viability, T/C (second compound 0.0949 µM, first compound 0.0949 µM): 4.22% | viability, T/C (second compound 0.0949 µM, first compound 0.3 µM): 2.51% | viability, T/C (second compound 0.3 µM, first compound 0.000949 µM): 10.2% | viability, T/C (second compound 0.3 µM, first compound 0.003 µM): 8.84% | viability, T/C (second compound 0.3 µM, first compound 0.00949 µM): 7.66% | viability, T/C (second compound 0.3 µM, first compound 0.03 µM): 5.32% | viability, T/C (second compound 0.3 µM, first compound 0.0949 µM): 3.16% | viability, T/C (second compound 0.3 µM, first compound 0.3 µM): 2.05%

Reference: PubChem BioAssay AID2060889 (Molecular Pharmacology Branch, DTP, NCI, 2025)
